Data as given in patent publication US20130101624A1, “LINEAR IGE PEPTIDE EPITOPES OF HAZELNUT ALLERGEN COR A 1 AND CELERY ANTIGEN API 1” (CHARITE UNIVERSITATSMEDIZIN BERLIN, priority 2010, published 2013).

Key:
[1] = tested on: human IgE antibodies (sera of hazelnut allergic patients); test: Human IgE antibody binding to Cor a 1.0301 derived 12-meric peptide array (SPOT pepscan), probed with sera; conditions: sera of 13 hazelnut allergic patients
Description: An array of overlapping peptides representing the entire sequence of major hazelnut allergen Cor a 1.0301 was synthesized and probed with the participants' sera. Sera of hazelnut allergic patients show binding to different distinct regions of Cor a 1. In particular, the region of dodecapeptides 17 to 22 is the most important region for IgE-binding.
(§1) Subsequently, these sequences were synthesized as peptide arrays on cellulose membranes according to SPOT technology. A highly specific secondary anti-human IgE antibody with minimum cross-reactivity towards cellulose membrane-bound peptides was employed.
Synthetic arrays were probed with sera randomly chosen from a well described cohort of subjects, including 21 patients with a defined allergic reaction to celery, 13 patients with a defined allergic reaction to hazelnut and 17 healthy individuals. Captured human IgE antibodies were detected by a HRP-labeled secondary antibody and binding was visualized by chemiluminescence. […]
Human IgE antibody binding studies: The spotted peptide arrays were prewashed with ethanol (1×10 min), washed with Tris-buffered saline (TBS), pH 8.0 (3×10 min), and blocked for 2 h at room temperature with blocking buffer. […] The signal intensities were recorded as Biomedical Light Units (BLU) by a Lumilmager™ (Boehringer Mannheim GmbH, Mannheim, Germany) using the LumiAnalyst software. […]

[2] = tested on: human IgE antibodies (sera of celery allergic patients and healthy subjects); test: Human IgE antibody binding to Api g 1.0101 derived 12-meric peptides arrayed on cellulose membrane (SPOT pepscan), probed with sera; conditions: for share of celery allergic individuals whose serum IgE responded to the peptide / recognition by sera of celery allergic patients: sera of 21 celery allergic patients; for share of celery allergic individuals whose serum IgE responded to the peptide / IgE binding in sera of healthy controls / recognition by sera of celery allergic patients: diluted 1:5; for share of celery allergic individuals whose serum IgE responded to the peptide: spot positive if SInorm above membrane cut off; for number of celery allergic patients whose sera IgE antibodies bind the sequence: of 21 celery allergic patients; for IgE binding in sera of healthy controls: sera of 17 healthy subjects
Description: as §1
Synthetic arrays were probed with sera randomly chosen from a well described cohort of subjects, including 21 patients with a defined allergic reaction to celery, 13 patients with a defined allergic reaction to hazelnut and 17 healthy individuals. Captured human IgE antibodies were detected by a HRP-labeled secondary antibody and binding was visualized by chemiluminescence.
The optimal conditions for screening the sera of 21 celery allergic patients and 17 healthy controls were as follows: (i) replica of a 12-meric pepscan with a shift of three amino acids covering the Api g 1.0101 sequence (or cor a 1 sequence, respectively) synthesized on high-loaded N-CAPE membranes (640 nmol/cm2-760 nmol/cm2); (ii) prior to treatment with sera, membranes were blocked with the Sigma-Genosys blocking buffer for 2 h at room temperature; (iii) arrays were probed for 16 h at 4° C. with diluted sera (1:5) for IgE antibody binding; (iv) the captured human IgE antibodies were detected with the HRP-labeled anti-human IgE antibody (A 9667, Sigma-Aldrich) and visualized by chemiluminescence; (v) spot signal intensities were measured on a Lumilmager and processed with the LumiAnalyst software. To check the reproducibility of our screening procedure, three different peptide arrays were incubated and evaluated for each person (allergic and healthy).
Sera binding patterns could be reproduced in repeated incubation experiments. Although inter-membrane absolute spot signal intensities differed, the relative differences between spot signal intensities were nearly the same. This enabled comparison of spot signal intensities from different membranes by applying an additional normalization procedure. We defined an IgE antibody binding spot as positive if its normalized signal intensity (SInorm) was higher than the calculated cut off value of the appropriate membrane.
Peptide array synthesis: Overlapping peptide sequences (7-, 12- and 24-mer) with a shift of three amino acids) of Api g 1.0101 or cor a 1 were prepared by a MultiPep SPOT-robot (INTAVIS Bioanalytical Instruments AG, Köln, Germany). Array design was performed with the aid of the in-house software LISA 1.83. Amino acids were used as Fmoc-protected Opfp-esters with the following side protection groups: tert-butyl ester (OtBu) for E and D, tert-butyl ether (tBu) for S, T and Y, tert-butoxycarbonyl (Boc) for K and W, triphenylmethyl (Trt) for C, N, Q and H and 2,2,4,6,7-pentamethyldihydrobenzofuran-5-sulfonyl (Pbf) for R. For standard SPOT-synthesis, double couplings of 0.3 M solutions of amino acids in 1-methyl-2-pyrollidone (NMP; Fluka, Steinheim, Germany) were applied. After the final Fmoc-deprotection step and washing procedure, cleavage of the side chain protecting groups was performed according to our standard two-step deprotection protocol.
Human IgE antibody binding studies: The spotted peptide arrays were prewashed with ethanol (1×10 min), washed with Tris-buffered saline (TBS), pH 8.0 (3×10 min), and blocked for 2 h at room temperature with blocking buffer. The membranes were incubated with the patients' sera (dilution 1:5) in blocking buffer overnight at 4° C., washed with TBS, followed by a second incubation with anti-human IgE antibody (ε-chain specific) conjugated with horse radish peroxidase (HRP) (A 9667, Sigma-Aldrich, St. Louis, USA) in blocking buffer for 2 h at room temperature. To remove excess antibody the membrane was washed with TBS (3×10 min). Detection was performed with Uptilight HRP blot chemiluminescent substrate (Uptima, Interchim, Montiugon Cedex, France) with an exposure time of 2 min. […]

Sequence	share of celery allergic individuals whose serum IgE responded to the peptide [2] [%]	number of celery allergic patients whose sera IgE antibodies bind the sequence [2]	IgE binding in sera of healthy controls [2]	further results
AGKEKASGLFKA (listed as Corylus avellana) [COR A 1. PEP47]				recognition by sera of hazelnut allergic patients [1]: recognized by all sera of hazelnut allergic patients
GDGGPGTLKIIT (listed as Apium graveolens) [compound 16]	38			
GGPITTMTLRID (listed as Apium graveolens) [compound 21]	29			
IFQGFVIDVDTV (listed as Apium graveolens) [peptide 7]	38	at least six	not reacting with any sera IgE antibody from healthy subjects	
IITLPDGGPITT (listed as Apium graveolens) [compound 19]	29			
NHVVLVPTADGG [peptide 34]	29	at least six	not reacting with any sera IgE antibody from healthy subjects	
PHGGSILKSISK (listed as Corylus avellana) [COR A 1. PEP37]				recognition by sera of hazelnut allergic patients [1]: recognized by all sera of hazelnut allergic patients
PTADGGSICKTT (listed as Apium graveolens) [compound 36]	43			
VLVPTADGGSIC (listed as Apium graveolens) [peptide 35]	100	at least six	not reacting with any sera IgE antibody from healthy subjects	spot signal intensity (BLU), ranking ([2]; average spot signal intensity, chemiluminescence, FIG. 3): highest measured spot signal intensity; IgE binding in sera of healthy controls ([2]; listed as VLVPTADGGSIC): no binding; recognition by sera of celery allergic patients [2]: recognized by the sera from all the celery allergic patients; recognition by sera of celery allergic patients ([2]; listed as VLVPTADGGSIC): recognized by all sera of celery allergic patients
